In the experiment the test system is (R)-hydroxynitrile lyase. As to the kind of experiment: Effect of reaction inhibitor in the aldehyde on enzymatic synthesis of (R)-2-chloromandelonitrile (conversion by HPLC after five hours). In kind it is biochemical, almond (Prunus amygdalus). As to conditions: 1 M aldehyde, 1.5 M prussic acid, immobilized enzyme 600 units, t-butyl methyl ether saturated with citrate buffer pH 5.5, five hours. How it is done: 2-chlorobenzaldehyde containing undetectable 2-chlorobenzoic acid (reaction inhibitor) was dissolved in t-butyl methyl ether saturated with 0.15 M citrate buffer (pH 5.5) to prepare a 1 M solution of 2-chlorobenzaldehyde. To this solution, 2-chlorobenzoic acid was added in different amounts to prepare aldehyde solutions of varying 2-chlorobenzoic acid contents.
Immobilized (R)-hydroxynitrile lyase (600 units) was introduced into 5 mil of each solution, and prussic acid was then added to reach 1.5 M, followed by synthesis of (R)-2-chloromandelonitrile. Five hours after initiation of the reaction, an aliquot of the reaction mixture was sampled to measure the conversion ratio of aldehyde by HPLC.

With `O=C(O)c1ccccc1Cl` [2-chlorobenzoic acid], the “inhibition of the enzyme reaction” value runs as follows: (0.5 wt % 2-chlorobenzoic acid added to 2-chlorobenzaldehyde) “about 30%”; (1.1 wt % 2-chlorobenzoic acid added to 2-chlorobenzaldehyde) “about 50%”.

The values above are taken from patent US7078225B2, “Method for enzymatically producing an optically active cyanohydrin” (Nippon Shokubai Co., Ltd., priority 2000, dated 2006).
